Patent publication US20230285374A1, “THERAPEUTIC METHODS USING VADADUSTAT” (Akebia Therapeutics, Inc., priority 2019, published 2023)

Tested on: subjects with anemia and Non-Dialysis-Dependent Chronic Kidney Disease (NDD-CKD)
Experiment: Phase 3 open-label, active-controlled NDD-CKD Conversion/Correction Study (J01), Compound 1 vs darbepoetin alfa, 52 weeks
Assay type: in vivo, human
From the text: This example describes the first open-label, active-controlled Phase 3 study of Compound 1 (Vadadustat or VDT or MT-6548) for treatment of anemia in subjects with Non-Dialysis-Dependent Chronic Kidney Disease (NDD-CKD) for up to 52 weeks. Efficacy and safety of Compound 1 was compared with darbepoetin alfa (DA) for the treatment of anemia in subjects with NDD-CKD. A subset of the subjects were switching to treatment with Compound 1 from an ESA therapy. […] These findings support the use of vadadustat as a durable, effective therapy for anemia in patients with NDD-CKD.
The study population consisted of subjects 20 years of age with NDD-CKD, estimated glomerular filtration rate (eGFR)<60 mL/min/1.73 m^2, and hemoglobin (Hb) values greater than or equal to 8.0 g/dL and less than 11.0 g/dL (correction group) or greater than or equal to 9.0 g/dL and less than 12.5 g/dL (conversion group), who were currently treated with an erythropoiesis stimulating agent (ESA) for anemia.
Following randomization, patients were treated for a period of up to 52 weeks. Patients were then observed post treatment for a period of two (2) weeks (“follow up” period).
In order to be eligible for this study, patients were required to meet all of the following inclusion criteria: • Be at least 20 years of age, inclusive; • Have diagnosis of Chronic Kidney Disease with an estimated glomerular filtration rate (eGFR)<60 mL/minute/1.73 m^2 [eGFR (mL/min/1.73 m^2)=194×(serum creatinine)^−1.094×(age)^−0.287(females: ×0.739)] at screening; • Not have received dialysis within 8 weeks prior to the screening period nor expect to start dialysis during the treatment period; • ESA Treatment • Correction group: not receiving ESA for at least eight (8) weeks just before screening; • Conversion group: receiving the same formulation of ESA using the same administration route and the same dose interval (the dose interval should be the one described in the package insert for the ESA formulation) for at least 8 weeks just before screening using the dosages described below: Epoetin alfa and epoetin beta: ≥12,000 IU every 2 weeks Darbepoetin alfa: ≥120 μg every 2 weeks Epoetin beta pegol: ≥250 μg every 4 weeks • Baseline Hb: Correction group: ≥8.0 to <11.0 g/dL Conversion group: ≥9.0 to ≤12.0 g/dL • Have a difference of <1.5 g/dL in Hb for the latest two tests in the screening period; • Have serum ferritin values of ≥100 ng/mL or transferrin saturation of ≥20% during the screening period; and • Have folic acid and vitamin B12 values above standard minimum values during the screening period.
Subjects deemed ineligible for into the study included those who: • Have anemia due to a cause other than CKD; • Have active bleeding or blood loss during the eight (8) weeks just before screening; • Have received a red blood cell transfusion during the eight (8) weeks just before screening; • Have uncontrolled hypertension; • Have active ocular fundus disease or cannot undergo an ocular fundus examination; • Have been diagnosed with cardiovascular disease, malignancy, or hemisiderosis; • Have a history of adverse drug reactions or a drug allergy; and • Have previously received Compound 1.
• Average Hb level at weeks 20 and 24 of the treatment period.
• Hb level at each treatment visit; and • The proportion of patients within the target Hb range (11.0-13.0 g/dL).
Safety endpoints for this study were defined as follows: • Adverse events (AEs); • Adverse drug reactions; and
Other endpoints for this study were defined as follows: • Iron-related parameters: serum ferritin, transferrin saturation (TSAT), total iron-binding capacity (TIBC), hepcidin, serum iron, and monthly dose of iron by any route of administration (oral and intravenous); and • Red blood cell indices. […]

[1] = 52 weeks LOCF compared with baseline

With O=C(O)CNC(=O)c1ncc(-c2cccc(Cl)c2)cc1O [Compound 1, Vadadustat] the “Deaths due to AEs” value (52 weeks) was 0 (0.0) n (%), the “MCH, change” value [1] was “significantly increased” and the “MCHC, change” value [1] was “significantly increased”. For the same compound, the “MCV, change” value [1] was “significantly increased”, the “RDW, change” value [1] was “no significant differences” and the “TIBC, change” value [1] was “significant increase”. For the same compound, the “TSAT, change” value [1] was “no significant difference”, the “hepcidin, change” value [1] was “significant decreases” and the “serum ferritin, change” value [1] was “significant decreases”. For the same compound, the “week at which mean Hb reached the target range (11.0-13.0 g/dL)” value (shortened to “week … (11.0-13.0 g/dL)”) (ESA non-users) was 8 week, the “proportion of patients with Hb levels within the target range” value (ESA non-users, Week 52) was 71.4% and the “proportion of patients with Hb levels within the target range” value (ESA non-users, baseline) was 15.5%. The “week … (11.0-13.0 g/dL)” value (ESA users) was 8 week, the “proportion of patients with Hb levels within the target range” value (ESA users, Hb<11.0 g/dl subgroup, Week 52) was 78.3% and the “proportion of patients with Hb levels within the target range” value (ESA users, Hb<11.0 g/dl subgroup, baseline) was 4.7%. For the same compound, the “proportion of patients with Hb levels within the target range” value (ESA users, Hb≥11.0 g/dl subgroup, Week 52) was 80.0%, the “proportion of patients with Hb levels within the target range” value (ESA users, Hb≥11.0 g/dl subgroup, baseline) was 91.9% and the “proportion of patients with Hb levels within the target range” value (ESA users, Week 52) was 79.2%. The “proportion of patients with Hb levels within the target range” value (ESA users, baseline) was 45.0%, the “Hb levels during the treatment period” value (ESA users, screening Hb ≥11.0 g/dl subgroup) was “maintained within the target range throughout the treatment period” and the “time at which mean Hb reached the target range” value (ESA users, screening Hb<11.0 g/dl subgroup) was 12 weeks. For the same compound, the “proportion of patients within the target Hb range” value (conversion group, week 24) was 66.7%, the “average Hb at baseline” value (conversion patients) was 10.68 g/dL and the “average Hb at week 24” value (conversion patients) was 11.27 g/dL. The “average Hb at baseline” value (correction patients) was 10.17 g/dL, the “average Hb at week 24” value (correction patients) was 11.85 g/dL and the “proportion of patients within the target Hb range of 11.0-13.0 g/dL” value (correction patients, week 24) was 69.7%. For the same compound, the Adverse drug reaction (human, in vivo, 52 weeks) was 20 (13.2) n (%), the “Cardiac failure (AE of special interest)” value (human, in vivo, 52 weeks) was 6 (4.0) n (%) and the “Cardiovascular event (AE of special interest)” value (human, in vivo, 52 weeks) was 3 (2.0) n (%). The Constipation (human, in vivo, 52 weeks) was 14 (9.3) n (%), the Diarrhea (human, in vivo, 52 weeks) was 18 (11.9) n (%) and the “Discontinuation due to AEs” value (human, in vivo, 52 weeks) was 10 (6.6) n (%). The “Dose reduction or interruption of study drug due to AEs” value (human, in vivo, 52 weeks) was 11 (7.3) n (%), the “Hyperkalemia (AE of special interest)” value (human, in vivo, 52 weeks) was 1 (0.7) n (%) and the “Malignancy (AE of special interest)” value (human, in vivo, 52 weeks) was 2 (1.3) n (%). For the same compound, the Nasopharyngitis (human, in vivo, 52 weeks) was 37 (24.5) n (%), the “Pulmonary hypertension (AE of special interest)” value (human, in vivo, 52 weeks) was 0 (0.0) n (%) and the “Retinal disorder (AE of special interest)” value (human, in vivo, 52 weeks) was 4 (2.6) n (%). The “Serious AEs” value (human, in vivo, 52 weeks) was 42 (27.8) n (%), the “Serious adverse drug reaction” value (human, in vivo, 52 weeks) was 0 (0.0) n (%) and the “Subjects with ≥ 1 AE” value (human, in vivo, 52 weeks) was 136 (90.1) n (%). The constipation (human, in vivo, 52 weeks) was 9.3%, the diarrhea (human, in vivo, 52 weeks) was 11.9% and the “incidence of adverse events (AEs), at least one AE” value (human, in vivo, 52 weeks) was 90.1%. The “incidence of serious adverse events (SAEs)” value (human, in vivo, 52 weeks) was 27.8%, the nasopharyngitis (human, in vivo, 52 weeks) was 24.5% and the “mean Hb level at week 52” value (overall population) was 11.51 g/dL. For the same compound, the “week … (11.0-13.0 g/dL)” value (overall population) was 8 week, the “LSMean of the average Hb at weeks 20 and 24” value (overall population, MMRM) was 11.66 g/dL and the “Difference (Compound 1-Darbepoetin alfa) in LSMean of the average Hb at weeks 20 and 24” value (overall population, noninferiority margin −0.75 g/dL) was -0.26 g/dL.
